The values below come from ChEMBL document CHEMBL1255445, “Evaluation of nucleoside hydrolase inhibitors for treatment of African trypanosomiasis” (Antimicrob Agents Chemother, 2010).

Activity calls are given as the source filed them. Unless noted, no cut-off for these calls is given here. Bounds are passed on as bounds.

For experiment [1], the system named is Trypanosoma brucei brucei. Nature of the experiment: Antitrypanosomal activity against suramin sensitive Trypanosoma brucei brucei Lister 427 infected in Swiss Webster mouse assessed as parasite clearance in blood at 50 mg/kg treated orally for 1 day followed by intraperitoneally for 4 days measured on 21 days post-infection. In kind it is functional, organism-based. Set-up: dose 50 mg/kg.

For experiment [2], the system named is Trypanosoma brucei rhodesiense. The experiment in a line: Antitrypanosomal activity against Trypanosoma brucei rhodesiense assessed as reduction in parasite growth after 3 days by fluorometrically. In kind it is functional, organism-based. Particulars: 72 h.
Experiment [3] is described as follows: Cytotoxicity against human MRC5 SV2 cells after 48 hrs. Type of experiment: cell-based. Particulars: MRC5, 48 h.
Experiment [4] is described as follows: Inhibition of Trypanosoma brucei brucei Inosine guanosine nucleoside hydrolase.
Experiment [5] has as its system Trypanosoma brucei brucei. The experiment in a line: Antitrypanosomal activity against suramin sensitive Trypanosoma brucei brucei Lister 427 assessed as parasite killing at 1 uM after 24 hrs. Type of experiment: functional, organism-based.
The test system of experiment [6] is Trypanosoma brucei brucei. The experiment in a line: Antitrypanosomal activity against suramin sensitive Trypanosoma brucei brucei Lister 427 assessed as parasite killing at 10 uM after 48 hrs. Type of experiment: functional.
A short description of experiment [7]: Inhibition of Trypanosoma brucei brucei Lister 427 H2 transporter by scintillation counting.
The test system of experiment [8] is Trypanosoma brucei brucei. The experiment in a line: Antitrypanosomal activity against suramin sensitive Trypanosoma brucei brucei Lister 427 assessed as parasite killing at 0.25 uM within 5 hrs. Type of experiment: functional, organism-based.
Experiment [9] relates to Trypanosoma brucei brucei. Nature of the experiment: Antitrypanosomal activity against suramin sensitive Trypanosoma brucei brucei Lister 427 infected in Swiss Webster mouse assessed as mouse survival at 50 mg/kg treated 1 day po and for 4 days in ip measured on 21 days after infectio. Type of experiment: functional.
Another experiment deals with Plasmodium falciparum. Nature of the experiment: Antiparasitic activity against chloroquine-sensitive Plasmodium falciparum Ghana assessed as reduction in parasite growth after 3 days by fluorimetry. Type of experiment: functional, organism-based.
The next experiment has as its system Trypanosoma cruzi. Nature of the experiment: Antitrypanosomal activity against Trypanosoma cruzi Tulahuen CL2 s-galactosidase strain assessed as reduction in parasite growth after 3 days by fluorometrically. Type of experiment: functional, organism-based.
For experiment [10], the system named is Trypanosoma brucei brucei. The experiment in a line: Antitrypanosomal activity against suramin sensitive Trypanosoma brucei brucei Lister 427 assessed as reduction in viability and mortality up to 20 uM over 7 hrs by in vitro lysis assay. Type of experiment: functional, organism-based.
Experiment [11] is described as follows: Inhibition of Trypanosoma brucei brucei inosine-adenosine-guanosine nucleoside hydrolase (IAG-NH).
The nature of experiment [12]: Inhibition of Trypanosoma vivax Inosine-adenosine-guanosine-nucleoside hydrolase.
Experiment [13] concerns Trypanosoma brucei brucei. The experiment in a line: Antitrypanosomal activity against suramin sensitive Trypanosoma brucei brucei Lister 427 assessed as reduction in parasite growth after 3 days by fluorometrically. Type of experiment: functional, organism-based. The note with it: Lister 427, 72 h.
Experiment [14] concerns Trypanosoma brucei brucei. The experiment in a line: Antitrypanosomal activity against suramin sensitive Trypanosoma brucei brucei Lister 427 infected in Swiss Webster mouse assessed as parasite clearance in blood at 50 mg/kg treated orally for 1 day followed by intraperitoneally for 4 days measured on 10 days post-infection. Type of experiment: functional, organism-based. The arrangement: dose 50 mg/kg.

Another experiment deals with Leishmania infantum. Nature of the experiment: Antileishmanial activity against Leishmania infantum MHOM/MA/67/ITMAP263 intracellular amastigotes assessed as reduction in parasite growth after 3 days by fluorometrically. Type of experiment: functional, organism-based.
Experiment [15] concerns Trypanosoma brucei brucei. Nature of the experiment: Antitrypanosomal activity against suramin sensitive Trypanosoma brucei brucei Lister 427 infected in Swiss Webster mouse assessed as parasite clearance in blood at 50 mg/kg treated orally for 1 day followed by intraperitoneally for 4 days measured on 14 days post-infection. In kind it is functional, organism-based. The arrangement: dose 50 mg/kg.

Experiment [16] in a line: Inhibition of Trypanosoma brucei brucei Lister 427 Nucleoside transporter P1 by scintillation counting.
Experiment [17] relates to Trypanosoma brucei brucei. The experiment in a line: Antitrypanosomal activity against suramin sensitive Trypanosoma brucei brucei Lister 427 assessed as reduction in parasite growth at > 5 uM by Alamar blue assay. Type of experiment: functional, organism-based. (In general: Resazurin is reduced to fluorescent resorufin, in cell work by metabolically active cells.)
The nature of experiment [18]: Inhibition of human purine nucleoside phosphorylase.
The nature of experiment [19]: Inhibition of Trypanosoma brucei brucei Lister 427 Nucleoside/nucleobase transporter P2 transporter by scintillation counting.

Broadly, the IC50 is the concentration that gives 50% inhibition. A word on the Ki: it is the equilibrium dissociation constant of an inhibitor or competing ligand from its target. On to `Nc1ncnc2c(CN3C[C@H](O)[C@H](O)[C@H]3CO)c[nH]c12`, for which the outcome in [1], in experiment [5], in experiment [8], in experiment [14], in [15] and in experiment [17] was Active. For the same compound, the results for the IC50 in experiment [2], in experiment [3] and in experiment [13] were 0.26 µM, greater than 64 µM and 0.49 µM, respectively. Further, the Ki is 32 µM in experiment [4]; 590 µM in experiment [7]; 0.018 µM in experiment [11]; 0.0041 µM in [12]; 360 µM in [16]; 22.5 µM in experiment [18]. In addition, the inhibition constant (Ki) in experiment [19] was 8.2 µM. For the same compound, the Activity in experiment [6] and in [9] was 75% each time. The result (with Plasmodium falciparum; in the experiment on Trypanosoma cruzi; in [10]; with Leishmania infantum) was inactive.
